From ChEMBL document CHEMBL1135448, “Synthesis and SAR of N-substituted dibenzazepinone derivatives as novel potent and selective alpha(V)beta(3) antagonists” (Bioorg Med Chem Lett, 2002)
“And” between values parts separate entries of the source, which are not always exact repeats. Equal values may be shown once. The source made the active and inactive calls. The rule behind the calls is not given here.

Legend:
Integrin alpha-V/beta-3 [1] = target: T1, Integrin alpha-V/beta-3 (Homo sapiens, UniProt P05106+P06756); assay: Affinity against alpha V-beta3 integrin via competitive ELISA using vitronectin as natural ligand; assay type: protein-complex assay
Integrin alpha-V/beta-3 [2] = target: T1, Integrin alpha-V/beta-3; assay: Displacement of vitronectin from alphaV-beta3 integrin in ELISA (Not active); assay type: protein-complex assay
Homo sapiens = organism: Homo sapiens; assay: Evaluated for primary human smooth muscle cell migration; assay type: functional
Integrin alpha-V/beta-3 [3] = target: T1, Integrin alpha-V/beta-3; assay: Cell adhesion of alphaV-beta3 integrin expressed in CHO-K1 cell to osteopontin (OPN); assay type: cell-based
[4] = target: Integrin alpha-5/beta-1 (Homo sapiens) (UniProt P05556+P08648); assay: Cell adhesion via alpha5-beta1 integrin to fibronectin at 10e-5 M (Not active); assay type: protein-complex assay
[5] = target: Integrin alpha-IIb/beta-3 (Homo sapiens, UniProt P05106+P08514); assay: Displacement of alphaIIb-beta3 integrin from fibrinogen by ELISA; assay type: protein-complex assay
[6] = target: Integrin alpha-4/beta-1 (Homo sapiens) (UniProt P05556+P13612); assay: Cell adhesion of alpha4-beta1 integrin to fibronectin at 10e-5 M (Not active); assay type: protein-complex assay
Caco-2 = assay: Apparent permeability constant (Papp) was evaluated for Caco-2 model permeation; assay type: functional, cell-based; conditions: Homo sapiens
Integrin alpha-V/beta-3 [7] = target: T1, Integrin alpha-V/beta-3; assay: Adhesion of recombinant alphaV-beta3 integrin expressed in CHO-K1 to osteopontin (OPN); assay type: cell-based

IC50 (Integrin alpha-V/beta-3 [1]) | SMILES | other results
1 µM | O=C(O)CC1c2ccccc2C(=O)N(CC(=O)NCc2nc(-c3nc4ccccc4[nH]3)cs2)c2ccccc21 (centres undefined) | 
1 µM | N=C(N)c1csc(CNC(=O)CN2C(=O)c3ccccc3C(CC(=O)O)c3ccccc32)c1 (centres undefined) | 
0.62 µM | O=C(O)CC1c2ccccc2C(=O)N(CC(=O)NCc2ccc(-c3nc4cc(Cl)ccc4[nH]3)cc2)c2ccccc21 (centres undefined) | 
0.074 µM | O=C(O)CC1c2ccccc2C(=O)N(CC(=O)NCc2ccc(-c3nc4ccccc4[nH]3)cc2)c2ccccc21 (centres undefined) | 
1 µM | O=C(O)CC1c2ccccc2C(=O)N(CC(=O)NCc2nc3ccccc3[nH]2)c2ccccc21 (centres undefined) | 
0.5 µM | O=C(O)CC1c2ccccc2C(=O)N(CC(=O)NCc2cc(-c3nc4ncccc4[nH]3)cs2)c2ccccc21 (centres undefined) | 
10 µM | O=C(O)CC1c2ccccc2C(=O)N(CC(=O)NCc2ccc(NC(=O)OCc3ccccc3)cc2)c2ccccc21 (centres undefined) | 
5 µM | O=C(O)CC1c2ccccc2C(=O)N(CC(=O)Nc2ccc(-c3nc4ccccc4[nH]3)cc2)c2ccccc21 (centres undefined) | 
 | O=C(O)CC1c2ccccc2C(=O)N(CC(=O)NCc2ccc(NC(=O)CCc3ccccc3)cc2)c2ccccc21 (centres undefined) | IC50 (Integrin alpha-V/beta-3 [2]): Not Active
0.22 µM | Cc1cc2nc(-c3ccc(CNC(=O)CN4C(=O)c5ccccc5C(CC(=O)O)c5ccccc54)cc3)[nH]c2cc1C (centres undefined) | 
10 µM | O=C(O)CC1c2ccccc2C(=O)N(CC(=O)NCc2cccc(-c3nc4ccccc4[nH]3)c2)c2ccccc21 (centres undefined) | 
0.084 µM | NC(N)=Nc1ccc(CNC(=O)CN2C(=O)c3ccccc3C(CC(=O)O)c3ccccc32)cc1 (centres undefined) | 
0.007 µM and 0.0073 µM | O=C(O)CC1c2ccccc2C(=O)N(CC(=O)NCc2ccc(Nc3nc4ccccc4[nH]3)cc2)c2ccccc21 (centres undefined) | Inhibition (Homo sapiens): 67%; IC50 (Integrin alpha-V/beta-3 [3]): 0.1 µM; inhibition [4]: inactive; IC50 [5]: > 100 µM; inhibition [6]: inactive
 | O=C(O)CC1c2ccccc2C(=O)N(CCNCc2ccc(NC(=O)NCc3ccccc3)cc2)c2ccccc21 (centres undefined) | IC50 (Integrin alpha-V/beta-3 [2]): Not Active
0.2 µM | O=C(O)CC1c2ccccc2C(=O)N(CC(=O)NCc2ccc(-c3nc4ccccc4[nH]3)nc2)c2ccccc21 (centres undefined) | 
5 µM | O=C(O)CC1c2ccccc2C(=O)N(CC(=O)NCc2ccc(Nc3ccccn3)cc2)c2ccccc21 (centres undefined) | 
0.1 µM | O=C(O)CC1c2ccccc2C(=O)N(CC(=O)NCc2cc(-c3nc4ccccc4[nH]3)cs2)c2ccccc21 (centres undefined) | 
0.22 µM | O=C(O)CC1c2ccccc2C(=O)N(CC(=O)NCc2cc(CNc3ccccn3)cs2)c2ccccc21 (centres undefined) | 
0.0016 µM | O=C(O)CC1c2ccccc2C(=O)N(CC(=O)NC[C@H]2CC[C@H](Nc3nc4ccccc4[nH]3)CC2)c2ccccc21 (some centres undefined) | Papp (Caco-2): 2.7 ×10⁻⁶ cm/s; Inhibition (Homo sapiens): 100%; inhibition [4]: inactive; IC50 [5]: > 100 µM; inhibition [6]: inactive; IC50 (Integrin alpha-V/beta-3 [7]): 0.04 µM
0.38 µM | O=C(O)CC1c2ccccc2C(=O)N(CC(=O)NCCc2ccc(-c3nc4ccccc4[nH]3)cc2)c2ccccc21 (centres undefined) | 
10 µM | O=C(O)CC1c2ccccc2C(=O)N(CCCCc2ccc(NC(=O)NCc3ccccc3)cc2)c2ccccc21 (centres undefined) | 
0.0149 µM | O=C(O)CC1c2ccccc2C(=O)N(CC(=O)NCCCCNc2nc3ccccc3[nH]2)c2ccccc21 (centres undefined) | 
 | O=C(O)CC1c2ccccc2C(=O)N(CCOCc2ccc(NC(=O)NCc3ccccc3)cc2)c2ccccc21 (centres undefined) | IC50 (Integrin alpha-V/beta-3 [2]): Not Active
0.5 µM | O=C(O)CC1c2ccccc2C(=O)N(CC(=O)NCc2ccc(-c3nc4ccccc4[nH]3)s2)c2ccccc21 (centres undefined) | 
10 µM | O=C(O)CC1c2ccccc2C(=O)N(CC(=O)NCc2ccc(OC(=O)NCc3ccccc3)cc2)c2ccccc21 (centres undefined) | 
1 µM | O=C(O)CC1c2ccccc2C(=O)N(CC(=O)NCCCNc2ccccn2)c2ccccc21 (centres undefined) | 
0.0129 µM | O=C(O)CC1c2ccccc2C(=O)N(CC(=O)NCCCCCNc2nc3ccccc3[nH]2)c2ccccc21 (centres undefined) | 
0.023 µM | O=C(O)CC1c2ccccc2C(=O)N(CC(=O)NCc2ccc(NC(=O)NCc3ccccc3)cc2)c2ccccc21 (centres undefined) | 
